Assay results as given in patent US12319664B2, “Herbicidally active 3-phenylisoxazoline-5-carboxamides of cyclopentenylcarboxylic acid derivatives” (Bayer Aktiengesellschaft, priority 2018, dated 2025).

Key:
ALOMY = assay: Post-emergence herbicidal action against ALOMY; assay type: in vivo, Alopecurus myosuroides; conditions: application rate 80 g/ha, rated visually after about 3 weeks
Procedure, shortened: (§1)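 Percent herbicidal activity was judged visually relative to untreated controls approximately 3 weeks after spraying. Treatment occurred at the one-leaf stage on greenhouse-grown plants in sandy loam.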

AVEFA = assay: Post-emergence herbicidal action against AVEFA; assay type: in vivo, Avena fatua; conditions: application rate 80 g/ha, rated visually after about 3 weeks
Procedure, shortened: as §1

ECHCG = assay: Post-emergence herbicidal action against ECHCG; assay type: in vivo, Echinochloa crus-galli; conditions: application rate 80 g/ha, rated visually after about 3 weeks
Procedure, shortened: as §1

LOLRI = assay: Post-emergence herbicidal action against LOLRI; assay type: in vivo, Lolium rigidum; conditions: application rate 80 g/ha, rated visually after about 3 weeks
Procedure, shortened: as §1

SETVI = assay: Post-emergence herbicidal action against SETVI; assay type: in vivo, Setaria viridis; conditions: application rate 80 g/ha, rated visually after about 3 weeks
Procedure, shortened: as §1

ABUTH = assay: Post-emergence herbicidal action against ABUTH; assay type: in vivo, Abutilon theophrasti; conditions: application rate 80 g/ha, rated visually about 3 weeks after treatment
Procedure, shortened: as §1

AMARE = assay: Post-emergence herbicidal action against AMARE; assay type: in vivo, Amaranthus retroflexus; conditions: application rate 80 g/ha, rated visually about 3 weeks after treatment
Procedure, shortened: as §1

MATIN = assay: Post-emergence herbicidal action against MATIN; assay type: in vivo, Matricaria inodora; conditions: application rate 80 g/ha, rated visually about 3 weeks after treatment
Experimental: [table] 2. Post-emergence herbicidal action against harmful plants and crop plant compatibility Seeds of monocotyledonous and dicotyledonous weeds and crop plants are placed in sandy loam in plastic or wood-fibre pots, covered with soil and cultivated in a greenhouse under controlled growth conditions. 2 to 3 weeks after sowing, the test plants are treated at the one-leaf stage. The compounds of the invention, formulated in the form of wettable powders (WP) or as emulsion concentrates (EC), are then sprayed onto the green parts of the plants as aqueous suspension or emulsion with addition of 0.5% additive at a water application rate of 600 l/ha (converted). After the test plants have been kept in the greenhouse under optimum growth conditions for about 3 weeks, the activity of the preparations is rated visually in comparison to untreated controls. For example, 100% activity=the plants have died, 0% activity=like control plants.

POLCO = assay: Post-emergence herbicidal action against POLCO; assay type: in vivo, Polygonum convolvulus; conditions: application rate 80 g/ha, rated visually about 3 weeks after treatment
Procedure, shortened: as §1

VERPE = assay: Post-emergence herbicidal action against VERPE; assay type: in vivo, Veronica persica; conditions: application rate 80 g/ha
Procedure, shortened: as §1

HORMU = assay: Post-emergence herbicidal action against HORMU; assay type: in vivo, Hordeum murinum; conditions: application rate 80 g/ha
Procedure, shortened: as §1

PHBPU = assay: Post-emergence herbicidal action against PHBPU; assay type: in vivo, Pharbitis purpurea; conditions: application rate 80 g/ha, rated visually about 3 weeks after treatment
Procedure, shortened: as §1

STEME = assay: Post-emergence herbicidal action against STEME; assay type: in vivo, Stellaria media; conditions: application rate 80 g/ha, rated visually about 3 weeks after treatment
Procedure, shortened: as §1

Structure (SMILES): C=CC1(C(=O)N[C@H]2C=C[C@@H](C(=O)OCCOC)C2)CC(c2cc(F)cc(F)c2)=NO1 (stereo partly drawn) [Example I-018]
- Herbicidal action against [%] ALOMY (ALOMY): 100%
- Herbicidal action against [%] AVEFA (AVEFA): 100%
- Herbicidal action against [%] ECHCG (ECHCG): 100%
- Herbicidal action against [%] LOLRI (LOLRI): 100%
- Herbicidal action against [%] SETVI (SETVI): 90%
- Herbicidal action against [%] ABUTH (ABUTH): 90%
- Herbicidal action against [%] AMARE (AMARE): 90%
- Herbicidal action against [%] MATIN (MATIN): 80%
- Herbicidal action against [%] POLCO (POLCO): 100%
- Herbicidal action against [%] VERPE (VERPE): 90%
- Herbicidal action against [%] HORMU (HORMU): 90%

Structure (SMILES): CCOC(=O)C1C=CC(NC(=O)C2(C(F)(F)F)CC(c3cc(C)cc(C)c3)=NO2)C1 (mixture of isomers) [Example I-053]
- Herbicidal action against [%] ALOMY (ALOMY): 90%
- Herbicidal action against [%] AVEFA (AVEFA): 90%
- Herbicidal action against [%] LOLRI (LOLRI): 90%
- Herbicidal action against [%] MATIN (MATIN): 80%
- Herbicidal action against [%] PHBPU (PHBPU): 80%
- Herbicidal action against [%] STEME (STEME): 90%
- Herbicidal action against [%] VERPE (VERPE): 80%

Structure (SMILES): COC(=O)C1C=CC(NC(=O)C2(C(F)(F)F)CC(c3cc(Cl)cc(Cl)c3)=NO2)C1 (mixture of isomers) [Example I-039]
- Herbicidal action against [%] ALOMY (ALOMY): 100%
- Herbicidal action against [%] AVEFA (AVEFA): 90%
- Herbicidal action against [%] ECHCG (ECHCG): 90%
- Herbicidal action against [%] LOLRI (LOLRI): 100%
- Herbicidal action against [%] SETVI (SETVI): 80%
- Herbicidal action against [%] ABUTH (ABUTH): 80%
- Herbicidal action against [%] AMARE (AMARE): 80%
- Herbicidal action against [%] MATIN (MATIN): 80%
- Herbicidal action against [%] PHBPU (PHBPU): 80%
- Herbicidal action against [%] STEME (STEME): 90%
- Herbicidal action against [%] VERPE (VERPE): 80%
- Herbicidal action against [%] HORMU (HORMU): 80%

Structure (SMILES): CC1(C(=O)N[C@H]2C=C[C@@H](C(=O)OCCCl)C2)CC(c2cc(F)cc(F)c2)=NO1 (stereo partly drawn) [Example I-009]
- Herbicidal action against [%] ALOMY (ALOMY): 90%
- Herbicidal action against [%] AVEFA (AVEFA): 90%
- Herbicidal action against [%] ECHCG (ECHCG): 90%
- Herbicidal action against [%] LOLRI (LOLRI): 90%
- Herbicidal action against [%] SETVI (SETVI): 90%
- Herbicidal action against [%] ABUTH (ABUTH): 90%
- Herbicidal action against [%] MATIN (MATIN): 90%
- Herbicidal action against [%] PHBPU (PHBPU): 90%
- Herbicidal action against [%] POLCO (POLCO): 90%
- Herbicidal action against [%] STEME (STEME): 90%
- Herbicidal action against [%] VERPE (VERPE): 90%
- Herbicidal action against [%] HORMU (HORMU): 90%

Structure (SMILES): O=C(OCCCl)C1C=CC(NC(=O)C2(C(F)(F)F)CC(c3cc(Cl)cc(Cl)c3)=NO2)C1 (mixture of isomers) [Example I-040]
- Herbicidal action against [%] ALOMY (ALOMY): 90%
- Herbicidal action against [%] AVEFA (AVEFA): 90%
- Herbicidal action against [%] ECHCG (ECHCG): 90%
- Herbicidal action against [%] LOLRI (LOLRI): 90%
- Herbicidal action against [%] ABUTH (ABUTH): 80%
- Herbicidal action against [%] MATIN (MATIN): 80%
- Herbicidal action against [%] STEME (STEME): 90%
- Herbicidal action against [%] VERPE (VERPE): 80%
- Herbicidal action against [%] HORMU (HORMU): 90%

Structure (SMILES): COC(=O)C1C=CC(NC(=O)C2(C(F)(F)F)CC(c3cccc(Cl)c3)=NO2)C1 (mixture of isomers) [Example I-046]
- Herbicidal action against [%] ALOMY (ALOMY): 90%
- Herbicidal action against [%] AVEFA (AVEFA): 90%
- Herbicidal action against [%] ECHCG (ECHCG): 90%
- Herbicidal action against [%] LOLRI (LOLRI): 100%
- Herbicidal action against [%] SETVI (SETVI): 80%
- Herbicidal action against [%] ABUTH (ABUTH): 90%
- Herbicidal action against [%] AMARE (AMARE): 80%
- Herbicidal action against [%] MATIN (MATIN): 80%
- Herbicidal action against [%] STEME (STEME): 90%
- Herbicidal action against [%] VERPE (VERPE): 80%
- Herbicidal action against [%] HORMU (HORMU): 100%

Structure (SMILES): Cc1cc(F)cc(C2=NOC(C(=O)N[C@H]3C=C[C@@H](C(=O)OCCCl)C3)(C(F)(F)F)C2)c1 (stereo partly drawn) [Example I-031]
- Herbicidal action against [%] ALOMY (ALOMY): 90%
- Herbicidal action against [%] AVEFA (AVEFA): 90%
- Herbicidal action against [%] ECHCG (ECHCG): 80%
- Herbicidal action against [%] LOLRI (LOLRI): 100%
- Herbicidal action against [%] SETVI (SETVI): 90%
- Herbicidal action against [%] AMARE (AMARE): 90%
- Herbicidal action against [%] MATIN (MATIN): 80%
- Herbicidal action against [%] PHBPU (PHBPU): 80%
- Herbicidal action against [%] POLCO (POLCO): 90%
- Herbicidal action against [%] VERPE (VERPE): 80%
- Herbicidal action against [%] HORMU (HORMU): 90%

Structure (SMILES): COC(=O)C1C=CC(NC(=O)C2(C(F)(F)F)CC(c3cc(C)cc(C(F)(F)F)c3)=NO2)C1 (mixture of isomers) [Example I-048]
- Herbicidal action against [%] ALOMY (ALOMY): 100%
- Herbicidal action against [%] AVEFA (AVEFA): 90%
- Herbicidal action against [%] ECHCG (ECHCG): 80%
- Herbicidal action against [%] LOLRI (LOLRI): 80%
- Herbicidal action against [%] ABUTH (ABUTH): 80%
- Herbicidal action against [%] MATIN (MATIN): 80%
- Herbicidal action against [%] PHBPU (PHBPU): 80%
- Herbicidal action against [%] STEME (STEME): 90%
- Herbicidal action against [%] VERPE (VERPE): 80%
- Herbicidal action against [%] HORMU (HORMU): 90%

Structure (SMILES): CCOC(=O)C1C=CC(NC(=O)C2(C)CC(c3cc(F)cc(F)c3)=NO2)C1 (mixture of isomers) [Example I-059]
- Herbicidal action against [%] ALOMY (ALOMY): 90%
- Herbicidal action against [%] AVEFA (AVEFA): 100%
- Herbicidal action against [%] ECHCG (ECHCG): 100%
- Herbicidal action against [%] LOLRI (LOLRI): 100%
- Herbicidal action against [%] SETVI (SETVI): 90%
- Herbicidal action against [%] AMARE (AMARE): 80%
- Herbicidal action against [%] MATIN (MATIN): 90%
- Herbicidal action against [%] PHBPU (PHBPU): 80%
- Herbicidal action against [%] POLCO (POLCO): 80%
- Herbicidal action against [%] STEME (STEME): 90%
- Herbicidal action against [%] VERPE (VERPE): 80%
- Herbicidal action against [%] HORMU (HORMU): 90%

Structure (SMILES): CCOC(=O)C1C=CC(NC(=O)C2(C(F)(F)F)CC(c3cccc(Cl)c3)=NO2)C1 (mixture of isomers) [Example I-042]
- Herbicidal action against [%] ALOMY (ALOMY): 100%
- Herbicidal action against [%] AVEFA (AVEFA): 100%
- Herbicidal action against [%] ECHCG (ECHCG): 90%
- Herbicidal action against [%] LOLRI (LOLRI): 100%
- Herbicidal action against [%] SETVI (SETVI): 80%
- Herbicidal action against [%] ABUTH (ABUTH): 80%
- Herbicidal action against [%] MATIN (MATIN): 80%
- Herbicidal action against [%] STEME (STEME): 90%
- Herbicidal action against [%] VERPE (VERPE): 80%
- Herbicidal action against [%] HORMU (HORMU): 90%
